System: normal human neonatal foreskin epidermal keratinocytes (NHEK-F)
Test: Cell proliferation inhibition test
Format: cell-based
Conditions: Keratinocyte, 72 h, NHEK-F cells, three days incubation, ATPlite or CellTiterGlo, read-out: IC50 (concentration of the compound at which the cell count is reduced by 50%)
Summary of the method: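 NHEK-F keratinocytes, 2×10^3 per well in Humedia-EG2, plated overnight, then exposed to compound for three days. Cell count by ATPlite or CellTiterGlo luminescence; inhibition = 100 − (treated/untreated count)×100, IC50 as 50% reduction concentration.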

| SMILES | IC50 |
| --- | --- |
| O=C(O)c1cc(C2CC2)cnc1Nc1cccc2c(-c3ccccc3)ncnc12 [Example 531, 5-cyclopropyl-2-((4-phenylquinazolin-8-yl)amino)nicotinic acid] | 10 to 100 nM |
| O=C(O)c1cc(C2CC2)cnc1Nc1ccc2ncnc(-c3ccccc3)c2c1 [Example 533, 5-cyclopropyl-2-((4-phenylquinazolin-6-yl)amino)nicotinic acid] | 100 to 1000 nM |
| Cc1cn(CC(C)C)c2ccc(Nc3ncc(C4CC4)cc3C(=O)O)cc12 [Example 535, 5-cyclopropyl-2-((1-isobutyl-3-methyl-1H-indol-5-yl)amino)nicotinic acid] | ≤ 10 nM |
| O=C(O)c1cc(C2CC2)cnc1Nc1cccc2c1ccn2CC1CCCC1 [Example 537, 2-((1-(Cyclopentylmethyl)-1H-indol-4-yl)amino)-5-cyclopropylnicotinic acid] | ≤ 10 nM |
| O=C(O)c1cc(C2CC2)ccc1Nc1cccc2c1ccc(=O)n2-c1ccccc1 [Example 539, 5-cyclopropyl-2-((2-oxo-1-phenyl-1,2-dihydroquinolin-5-yl)amino)benzoic acid] | ≤ 10 nM |
| CC(C)Cn1ncc2cc(Nc3ncc(C4CC4)cc3C(=O)O)ccc21 [Example 541, 5-cyclopropyl-2-((1-isobutyl-1H-indazol-5-yl)amino)nicotinic acid] | 10 to 100 nM |
| O=C(O)c1cc(C2CC2)cnc1Nc1cnc2c(ccn2Cc2ccccc2)c1 [Example 545, 2-((1-benzyl-1H-pyrrolo(2,3-b)pyridin-5-yl)amino)-5-cyclopropylnicotinic acid] | ≤ 10 nM |
| CC(C)Cn1ccc2cc(Nc3ncc(C4CC4)cc3C(=O)O)cnc21 [Example 547, 5-cyclopropyl-2-((1-isobutyl-1H-pyrrolo(2,3-b)pyridin-5-yl)amino)nicotinic acid] | 10 to 100 nM |
| O=C(O)c1cc(C2CC2)cnc1Nc1cnc2c(ccn2CC2CCCCC2)c1 [Example 549] | ≤ 10 nM |
| Cc1cc2cc(Nc3ncc(C4CC4)cc3C(=O)O)ccc2n1CC(C)C [Example 550, 5-cyclopropyl-2-((1-isobutyl-2-methyl-1H-indol-5-yl)amino)nicotinic acid] | 10 to 100 nM |
| O=C(O)c1cc(C2CC2)cnc1Nc1cc2ccn(Cc3ccccc3)c2cc1F [Example 552, 2-((1-benzyl-6-fluoro-1H-indol-5-yl)amino)-5-cyclopropylnicotinic acid] | ≤ 10 nM |
| O=C(O)c1cc(C2CC2)cnc1Nc1c(F)cc2c(ccn2Cc2ccccc2)c1F [Example 554, 2-((1-benzyl-4,6-difluoro-1H-indol-5-yl)amino)-5-cyclopropylnicotinic acid] | ≤ 10 nM |
| Cn1cc(-c2cccc(F)c2)c2cc(Nc3ncc(C4CC4)cc3C(=O)O)ccc21 [Example 559, 5-Cyclopropyl-2-((3-(3-fluorophenyl)-1-methyl-1H-indol-5-yl)amino)nicotinic acid] | 10 to 100 nM |
| Cn1cc(-c2ccc(F)cc2)c2cc(Nc3ncc(C4CC4)cc3C(=O)O)ccc21 [Example 561, 5-cyclopropyl-2-((3-(4-fluorophenyl)-1-methyl-1H-indol-5-yl)amino)nicotinic acid] | 10 to 100 nM |
| CC(C)Cn1c(=O)sc2cc(Nc3ncc(C4CC4)cc3C(=O)O)ccc21 [Example 563, 5-Cyclopropyl-2-((3-isobutyl-2-oxo-2,3-dihydro-1,3-benzothiazol-6-yl)amino)nicotinic acid] | 10 to 100 nM |
| Cc1ccccc1-c1cn(C)c2ccc(Nc3ncc(C4CC4)cc3C(=O)O)cc12 [Example 567, 5-cyclopropyl-2-((1-methyl-3-(2-methylphenyl)-1H-indol-5-yl)amino)nicotinic acid] | 10 to 100 nM |
| Cc1cccc(-c2cn(C)c3ccc(Nc4ncc(C5CC5)cc4C(=O)O)cc23)c1 [Example 569, 5-cyclopropyl-2-((1-methyl-3-(3-methylphenyl)-1H-indol-5-yl)amino)nicotinic acid] | 100 to 1000 nM |
| Cc1ccc(-c2cn(C)c3ccc(Nc4ncc(C5CC5)cc4C(=O)O)cc23)cc1 [Example 571, 5-cyclopropyl-2-((1-methyl-3-(4-methylphenyl)-1H-indol-5-yl)amino)nicotinic acid] | 10 to 100 nM |
| Cc1c(Nc2ncc(C3CC3)cc2C(=O)O)ccc2c1ccn2Cc1ccccc1 [Example 573] | ≤ 10 nM |
| O=C(O)c1cc(C2CC2)cnc1Nc1ccc2c(ccn2C(=O)c2ccccc2)c1 [Example 575, 2-((1-benzoyl-1H-indol-5-yl)amino)-5-cyclopropylnicotinic acid] | 10 to 100 nM |
| COc1cccc(-c2cn(C)c3ccc(Nc4ncc(C5CC5)cc4C(=O)O)cc23)c1 [Example 577, 5-cyclopropyl-2-((3-(3-methoxyphenyl)-1-methyl-1H-indol-5-yl)amino)nicotinic acid] | 100 to 1000 nM |

| SMILES | IC50 |
| --- | --- |
| COc1ccc(-c2cn(C)c3ccc(Nc4ncc(C5CC5)cc4C(=O)O)cc23)cc1 [Example 579, 5-cyclopropyl-2-((3-(4-methoxyphenyl)-1-methyl-1H-indol-5-yl)amino)nicotinic acid] | 100 to 1000 nM |
| COc1ccccc1-c1cn(C)c2ccc(Nc3ncc(C4CC4)cc3C(=O)O)cc12 [Example 581, 5-cyclopropyl-2-((3-(2-methoxyphenyl)-1-methyl-1H-indol-5-yl)amino)nicotinic acid] | 10 to 100 nM |
| O=C(O)c1cc(C2CC2)cnc1Nc1ccc2c(ccn2C(=O)C2CCCCC2)c1 [Example 583, 2-((1-(cyclohexylcarbonyl)-1H-indol-5-yl)amino)-5-cyclopropylnicotinic acid] | 10 to 100 nM |
| Cn1ccc2cc(Nc3ncc(C4CC4)cc3C(=O)O)cc(-c3cc(F)cc(F)c3)c21 [Example 586, 5-cyclopropyl-2-((7-(3,5-difluorophenyl)-1-methyl-1H-indol-5-yl)amino)nicotinic acid] | ≤ 10 nM |
| Cn1ccc2cc(Nc3ncc(C4CC4)cc3C(=O)O)cc(-c3cccc(F)c3F)c21 [Example 587, 5-cyclopropyl-2-((7-(2,3-difluorophenyl)-1-methyl-1H-indol-5-yl)amino)nicotinic acid] | ≤ 10 nM |
| Cn1ccc2cc(Nc3ncc(C4CC4)cc3C(=O)O)cc(-c3ccncc3F)c21 [Example 589, 5-cyclopropyl-2-((7-(3-fluoropyridin-4-yl)-1-methyl-1H-indol-5-yl)amino)nicotinic acid] | 10 to 100 nM |
| Cn1ccc2cc(Nc3ncc(C4CC4)cc3C(=O)O)cc(-c3cc(F)ccc3F)c21 [Example 590, 5-cyclopropyl-2-((7-(2,5-difluorophenyl)-1-methyl-1H-indol-5-yl)amino)nicotinic acid] | ≤ 10 nM |
| Cn1ccc2cc(Nc3ncc(C4CC4)cc3C(=O)O)cc(-c3cncnc3)c21 [Example 591, 5-cyclopropyl-2-((1-methyl-7-(pyrimidin-5-yl)-1H-indol-5-yl)amino)nicotinic acid] | 100 to 1000 nM |
| Cn1ccc2cc(Nc3ncc(C4CC4)cc3C(=O)O)cc(CCC3CCCCC3)c21 [Example 593, 2-((7-(2-cyclohexylethyl)-1-methyl-1H-indol-5-yl)amino)-5-cyclopropylnicotinic acid] | ≤ 10 nM |
| Cn1ccc2cc(Nc3ncc(C4CC4)cc3C(=O)O)cc(/C=C/C(C)(C)C)c21 [Example 594, 5-cyclopropyl-2-((7-((1E)-3,3-dimethylbut-1-en-1-yl)-1-methyl-1H-indol-5-yl)amino)nicotinic acid] | ≤ 10 nM |
| CCOCCCc1cc(Nc2ncc(C3CC3)cc2C(=O)O)cc2ccn(C)c12 [Example 603, 5-cyclopropyl-2-((7-(3-ethoxypropyl)-1-methyl-1H-indol-5-yl)amino)nicotinic acid] | 10 to 100 nM |
| CCO/C=C/c1cc(Nc2ncc(C3CC3)cc2C(=O)O)cc2ccn(C)c12 [Example 604, 5-cyclopropyl-2-((7-((E)-2-ethoxyethenyl)-1-methyl-1H-indol-5-yl)amino)nicotinic acid] | 10 to 100 nM |
| CCOCCc1cc(Nc2ncc(C3CC3)cc2C(=O)O)cc2ccn(C)c12 [Example 605, 5-cyclopropyl-2-((7-(2-ethoxyethyl)-1-methyl-1H-indol-5-yl)amino)nicotinic acid] | 10 to 100 nM |
| Cn1ccc2cc(Nc3ncc(C4CC4)cc3C(=O)O)cc(C3CCCCC3)c21 [Example 607, 2-((7-cyclohexyl-1-methyl-1H-indol-5-yl)amino)-5-cyclopropylnicotinic acid] | ≤ 10 nM |
| COCCCc1cc(Nc2ncc(C3CC3)cc2C(=O)O)cc2ccn(CC(C)C)c12 [Example 608, 5-cyclopropyl-2-((7-(3-methoxypropyl)-1-(2-methylpropyl)-1H-indol-5-yl)amino)nicotinic acid] | ≤ 10 nM |
| COCCCc1cc(Nc2ncc(C3CC3)cc2C(=O)O)cc2ccn(CC3CC3)c12 [Example 609, 5-cyclopropyl-2-((1-(cyclopropylmethyl)-7-(3-methoxypropyl)-1H-indol-5-yl)amino)nicotinic acid] | ≤ 10 nM |
| CCCCCn1ccc2cc(Nc3ncc(C4CC4)cc3C(=O)O)cc(CCCOC)c21 [Example 610, 5-cyclopropyl-2-((7-(3-methoxypropyl)-1-pentyl-1H-indol-5-yl)amino)nicotinic acid] | ≤ 10 nM |
| Cn1cc(C2CCCCC2)c2cc(Nc3ncc(C4CC4)cc3C(=O)O)ccc21 [Example 612, 2-((3-cyclohexyl-1-methyl-1H-indol-5-yl)amino)-5-cyclopropylnicotinic acid] | 10 to 100 nM |
| Cn1cc(C2CCCC2)c2cc(Nc3ncc(C4CC4)cc3C(=O)O)ccc21 [Example 614, 2-((3-cyclopentyl-1-methyl-1H-indol-5-yl)amino)-5-cyclopropylnicotinic acid] | 10 to 100 nM |
| O=C(O)c1cc(C2CC2)cnc1Nc1ccc2c(ccn2CCCC(F)(F)F)c1 [Example 616, 5-cyclopropyl-2-((1-(4,4,4-trifluorobutyl)-1H-indol-5-yl)amino)nicotinic acid] | 10 to 100 nM |
| O=C(O)c1cc(C2CC2)cnc1Nc1ccc2c(ccn2CCCc2ccccc2)c1 [Example 618, 5-cyclopropyl-2-((1-(3-phenylpropyl)-1H-indol-5-yl)amino)nicotinic acid] | ≤ 10 nM |

From US9624215B2, “Amine derivative or salt thereof” (TOYAMA CHEMICAL CO., LTD., priority 2012, dated 2017)
